Data as given in patent US10849985B2, “Method of targeting senescent cells” (Yeda Research and Development Co. Ltd., priority 2015, dated 2020).

Experiments:
cell surface Grp94 = test: Cell-surface Grp94 of mouse embryonic fibroblasts; type: cell-based; settings: MEFs 14 days after Etoposide treatment compared to growing MEFs
Procedure: FIGS. 4A-E. Extracellular Grp94 on senescent cells mediate cytotoxicity of innate components in-vitro. (A) Western blot analysis for Grp94/β-Tubulin in Etoposide-treated IMR90 cells 4 days after transfection with siControl or siHSP90B1 (HSP90B1 is a gene coding for Grp94). (B) PrestoBlue viability assay for Etoposide-treated IMR90 4 days after Transfection with siControl or siHSP90B1. (C) Cytotoxicity of NK92 cells in cultures of IMR90 cells treated with siControl or siHSP90B1. NK92 were added for 1 hour at a ratio of 1:3 (D) Crystal Violet staining for IMR90 cells after co-culturing with MM6 monocytes in the presence of GPM1. (E) Quantitative analysis of cell-surface Grp94 of Mouse embryonic fibroblasts (MEFs) 14 days after Etoposide treatment compared to growing MEFs.
The levels of cell surface Grp94 were also examined in mouse embryonic fibroblast cells (MEFs). […] The relatively high correlation between localization of Grp94 in human and mouse cells implies that it may serve as a new marker for senescent cells.

cell-surface Grp94 = target: T1, cell-surface Grp94 (Homo sapiens, UniProt P14625); test: Flow cytometry of cell-surface Grp94 on live IMR90 cells; type: cell-based; settings: 3 days after etoposide treatment
T1 construct: cell-surface Grp94 of live senescent etoposide-treated IMR90 cells after 24 hrs treatment with 10 or 100 μM GPM1; endogenous in cells; host or cells: IMR-90 human fibroblasts (ATCC), made senescent with etoposide
T1 sequence (P14625 22-803): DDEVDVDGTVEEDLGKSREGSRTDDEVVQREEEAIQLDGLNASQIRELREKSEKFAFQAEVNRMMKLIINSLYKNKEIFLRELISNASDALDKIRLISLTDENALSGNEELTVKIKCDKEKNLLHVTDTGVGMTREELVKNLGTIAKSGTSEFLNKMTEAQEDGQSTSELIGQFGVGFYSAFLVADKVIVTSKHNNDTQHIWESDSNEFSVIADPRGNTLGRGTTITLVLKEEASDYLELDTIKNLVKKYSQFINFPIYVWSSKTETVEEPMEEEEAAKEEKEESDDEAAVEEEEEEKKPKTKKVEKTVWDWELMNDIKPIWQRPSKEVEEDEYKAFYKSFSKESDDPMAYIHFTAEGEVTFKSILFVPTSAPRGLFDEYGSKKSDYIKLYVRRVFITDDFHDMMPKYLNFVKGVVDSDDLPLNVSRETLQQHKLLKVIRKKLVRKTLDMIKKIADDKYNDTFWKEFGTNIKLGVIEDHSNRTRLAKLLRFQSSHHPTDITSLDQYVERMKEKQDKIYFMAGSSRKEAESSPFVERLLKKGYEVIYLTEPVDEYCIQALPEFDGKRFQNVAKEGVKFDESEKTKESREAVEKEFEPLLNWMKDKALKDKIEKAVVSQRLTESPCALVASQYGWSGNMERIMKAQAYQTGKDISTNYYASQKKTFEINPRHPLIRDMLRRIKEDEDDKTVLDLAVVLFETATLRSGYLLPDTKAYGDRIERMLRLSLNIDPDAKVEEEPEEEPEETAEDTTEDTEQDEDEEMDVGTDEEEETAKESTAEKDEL
Source text: FIGS. 3A-F. Grp94 translocates to cell-surface of senescent cells. (A) Flow cytometry histogram for the frequency cell-surface Grp94 of live IMR90 cells 0, 3, 7, 14, or 21 days after etoposide treatment. (B) Quantitative analysis of cell-surface Grp94 on live IMR90 cells 0, 3, 7, 14, or 21 days after etoposide treatment. (C) Scheme describing the mechanism of GPM1-mediated blockage of Grp94 translocation to cell-surface. (D) PrestoBlue viability assay for IMR90 growing or senescent Etoposide-treated cells after 24 hrs treatment with 1, 10, or 100 μM GPM1. […] (E) Flow cytometry histogram for the frequency of cell-surface Grp94 of live senescent etoposide-treated IMR90 cells after 24 hrs treatment with 10 or 100 μM GPM1. (F) Quantitative analysis of cell-surface Grp94 on live senescent etoposide-treated IMR90 cells after 24 hrs treatment with 10 or 100 μM GPM1.
IMR-90 cells were gently dissociated from plates using TripLE express reagent (12604-013, Thermo Fisher Scientific), and maintained in cold FACS buffer (PBS containing 1% FCS and 0.1% Sodium Azid) throughout all procedure. […] Cells were analyzed in a SORP-LSRII instrument (BD Biosciences). […] Cells were gated by their size (FSC/SSC), DAPI negative (live cells) and then analyzed for their fluorescence intensity at the wavelength of 647 (cell-surface Grp94 level), using FlowJo v10 software.

SMILES: COc1cc([C@@H]2c3cc4c(cc3[C@@H](O[C@@H]3O[C@@H]5CO[C@@H](C)O[C@H]5[C@H](O)[C@H]3O)[C@H]3COC(=O)[C@H]23)OCO4)cc(OC)c1O [etoposide]
- cell surface Grp94 (cell surface Grp94): significant elevation
- cell-surface Grp94 levels (cell-surface Grp94): not elevated
